The values below are quoted from earlier work in patent US20200078455A1, “MESOTHELIN VACCINE FOR OVARIAN CANCER PREVENTION” (SRI INTERNATIONAL, priority 2017, published 2020).

With Oregovomab, the recurrence rate result (compared with women who received a placebo) is on record as “no difference in the recurrence rate”. Also, the immune response result (women with ovarian cancer) was “elicit an immune response”.

B1: Abagovomab (antibody, chains of the INN, looked up, V domains shown)
VH: QVKLQESGAELARPGASVKLSCKASGYTFTNYWMQWVKQRPGQGLDWIGAIYPGDGNTRYTHKFKGKATLTADKSSSTAYMQLSSLASEDSGVYYCARGEGNYAWFAYWGQGTTVTVSS
VL: DIELTQSPASLSASVGETVTITCQASENIYSYLAWHQQKQGKSPQLLVYNAKTLAGGVSSRFSGSGSGTHFSLKIKSLQPEDFGIYYCQHHYGILPTFGGGTKLEIK
notes: ovarian cancer vaccine that has been studied
B1: under “women with ovarian cancer”, the immune response result is “elicit an immune response” and the survival result was “not clear that this leads to longer survival”.
